Assay results reported in patent US8551984B2, “Aminopyrimidines as SYK inhibitors” (Merck Sharp & Dohme Corp., priority 2009, dated 2013).

What follows are compounds tested against recombinant human SYK (GST-hSYK fusion protein) (Homo sapiens, UniProt P43405) (assay: biochemical). Details: RHSYK Activity, Table 54A.
Description: Homogeneous Time-Resolved Fluorescence (HTRF) Assay for the Recombinant Human SYK Enzyme:

IC50	Compound
< 100 nM	CCC(=O)N1CCC(O)(c2ncc(-c3cc(C)cc(Nc4nccc(C(F)(F)F)n4)c3)s2)CC1 [Example 54A-4]
< 100 nM	Cc1cc(Nc2nccc(C(F)(F)F)n2)cc(-c2cnc(C3(O)CCN(C(=O)CO)CC3)s2)c1 [Example 54A-5]
< 100 nM	Cc1cc(Nc2nccc(C(F)(F)F)n2)cc(-c2cnc(C3(O)CCN(C(=O)CC#N)CC3)s2)c1 [Example 54A-6]
< 100 nM	Cc1cc(Nc2nccc(C(F)(F)F)n2)cc(-c2cnc(C3(O)CCN(C(=O)CN(C)C)CC3)s2)c1 [Example 54A-7]
< 100 nM	Cc1cc(Nc2nccc(C(F)(F)F)n2)cc(-c2cnc(C3(O)CCN(C(=O)c4cccnc4)CC3)s2)c1 [Example 54A-8]
< 100 nM	Cc1cc(Nc2nccc(C(F)(F)F)n2)cc(-c2cnc(C3(O)CCN(C(=O)c4ccccn4)CC3)s2)c1 [Example 54A-9]
< 100 nM	Cc1cc(Nc2nccc(C(F)(F)F)n2)cc(-c2cnc(C3(O)CCN(C(=O)CN4CCCC4=O)CC3)s2)c1 [Example 54A-10]
< 100 nM	Cc1cc(Nc2nccc(C(F)(F)F)n2)cc(-c2cnc(C3(O)CCN(C(=O)C4CC4)CC3)s2)c1 [Example 54A-11]
< 100 nM	Cc1cc(Nc2nccc(C(F)(F)F)n2)cc(-c2cnc(C3(O)CCN(C(=O)NC4CCCCC4)CC3)s2)c1 [Example 54A-12]
< 100 nM	Cc1cc(Nc2nccc(C(F)(F)F)n2)cc(-c2cnc(C3(O)CCN(C(=O)NC(C)C)CC3)s2)c1 [Example 54A-13]
< 100 nM	CCCNC(=O)N1CCC(O)(c2ncc(-c3cc(C)cc(Nc4nccc(C(F)(F)F)n4)c3)s2)CC1 [Example 54A-14]
< 100 nM	Cc1cc(Nc2nccc(C(F)(F)F)n2)cc(-c2cnc(C3(O)CCN(C(=O)N(C)C)CC3)s2)c1 [Example 54A-15]
< 100 nM	COc1ccnc(Nc2cc(C)cc(-c3cnc(C4(O)CCN(C(=O)NC(=O)N(C)C)CC4)s3)c2)n1 [Example 54A-17]
< 100 nM	COc1ccnc(Nc2cc(C)cc(-c3cnc(C4(O)CCN(C(N)=O)CC4)s3)c2)n1 [Example 54A-19]
< 100 nM	COc1ccnc(Nc2cc(C)cc(-c3cnc(C4(O)CCNCC4)s3)c2)n1 [Example 54A-20]
< 100 nM	Cc1cc(Nc2nccc(C(F)(F)F)n2)cc(-c2cnc(C3(O)CCN(C(=O)[C@@H](C)O)CC3)s2)c1 [Example 54A-21]
< 100 nM	Cc1cc(Nc2nccc(C(F)(F)F)n2)cc(-c2cnc(C3(O)CCN(C(=O)CCO)CC3)s2)c1 [Example 54A-22]
< 100 nM	Cc1cc(Nc2nccc(C(F)(F)F)n2)cc(-c2cnc(C3(O)CCN(C(=O)CCC#N)CC3)s2)c1 [Example 54A-23]
< 100 nM	Cc1cc(Nc2nccc(C(F)(F)F)n2)cc(-c2cnc(C3(O)CCN(C(=O)CC(N)=O)CC3)s2)c1 [Example 54A-25]
< 100 nM	Cc1cc(Nc2nccc(C(F)(F)F)n2)cc(-c2cnc(C3(O)CCN(C(=O)CC(C)O)CC3)s2)c1 (centres unmarked) [Example 54A-27]
< 100 nM	Cc1cc(Nc2nccc(C(F)(F)F)n2)cc(-c2cnc(C3(O)CCN(C(=O)c4ncc[nH]4)CC3)s2)c1 [Example 54A-28]
< 100 nM	Cc1cc(Nc2nccc(C(F)(F)F)n2)cc(-c2cnc(C3(O)CCN(C(=O)c4c[nH]cn4)CC3)s2)c1 [Example 54A-29]
< 100 nM	Cc1cc(Nc2nccc(C(F)(F)F)n2)cc(-c2cnc(C3(O)CCN(C(=O)c4nc[nH]n4)CC3)s2)c1 [Example 54A-30]
< 100 nM	Cc1cc(Nc2nccc(C(F)(F)F)n2)cc(-c2cnc(C3(O)CCN(C(=O)c4c[nH]nn4)CC3)s2)c1 [Example 54A-31]
< 100 nM	Cc1cc(Nc2nccc(C(F)(F)F)n2)cc(-c2cnc(C3(O)CCN(C(=O)C4CCOC4)CC3)s2)c1 (centres unmarked) [Example 54A-32]

IC50	Compound
< 100 nM	Cc1cc(Nc2nccc(C(F)(F)F)n2)cc(-c2cnc(C3(O)CCN(C(=O)C4CC(O)C4)CC3)s2)c1 (centres unmarked) [Example 54A-33]
< 100 nM	Cc1cc(Nc2nccc(C(F)(F)F)n2)cc(-c2cnc(C3(O)CCN(C(=O)c4ccccc4)CC3)s2)c1 [Example 54A-34]
< 100 nM	Cc1cc(Nc2nccc(C(F)(F)F)n2)cc(-c2cnc(C3(O)CCN(C(=O)Cn4ccnc4)CC3)s2)c1 [Example 54A-35]
< 100 nM	Cc1cc(Nc2nccc(C(F)(F)F)n2)cc(-c2cnc(C3(O)CCN(C(=O)Cc4c[nH]cn4)CC3)s2)c1 [Example 54A-36]
< 100 nM	Cc1cc(Nc2nccc(C(F)(F)F)n2)cc(-c2cnc(C3(O)CCN(C(=O)Cn4cncn4)CC3)s2)c1 [Example 54A-37]
< 100 nM	Cc1cc(Nc2nccc(C(F)(F)F)n2)cc(-c2cnc(C3(O)CCN(C(=O)[C@@H]4CCC(=O)N4)CC3)s2)c1 [Example 54A-38]
< 100 nM	Cc1cc(Nc2nccc(C(F)(F)F)n2)cc(-c2cnc(C3(O)CCN(C(=O)C4CNC(=O)N4)CC3)s2)c1 (centres unmarked) [Example 54A-39]
< 100 nM	Cc1cc(Nc2nccc(C(F)(F)F)n2)cc(-c2cnc(C3(O)CCN(C(=O)CC4CCOC4)CC3)s2)c1 (centres unmarked) [Example 54A-40]
< 100 nM	Cc1cc(Nc2nccc(C(F)(F)F)n2)cc(-c2cnc(C3(O)CCN(C(=O)C4CCCOC4)CC3)s2)c1 (centres unmarked) [Example 54A-41]
< 100 nM	Cc1cc(Nc2nccc(C(F)(F)F)n2)cc(-c2cnc(C3(O)CCN(C(=O)CC4CCCO4)CC3)s2)c1 (centres unmarked) [Example 54A-42]
< 100 nM	CCOC(=O)CC(=O)N1CCC(O)(c2ncc(-c3cc(C)cc(Nc4nccc(C(F)(F)F)n4)c3)s2)CC1 [Example 54A-43]
< 100 nM	Cc1cc(Nc2nccc(C(F)(F)F)n2)cc(-c2cnc(C3(O)CCN(C(=O)C(C)(CO)CO)CC3)s2)c1 [Example 54A-44]
< 100 nM	Cc1cc(Nc2nccc(C(F)(F)F)n2)cc(-c2cnc(C3(O)CCN(C(=O)Cc4cccnc4)CC3)s2)c1 [Example 54A-45]
< 100 nM	Cc1cc(Nc2nccc(C(F)(F)F)n2)cc(-c2cnc(C3(O)CCN(C(=O)Cc4ccccn4)CC3)s2)c1 [Example 54A-46]
< 100 nM	Cc1cc(Nc2nccc(C(F)(F)F)n2)cc(-c2cnc(C3(O)CCN(C(=O)CS(C)(=O)=O)CC3)s2)c1 [Example 54A-47]
< 100 nM	Cc1cc(Nc2nccc(C(F)(F)F)n2)cc(-c2cnc(C3(O)CCN(C(=O)CCc4cn[nH]c4)CC3)s2)c1 [Example 54A-50]
< 100 nM	Cc1cc(Nc2nccc(C(F)(F)F)n2)cc(-c2cnc(C3(O)CCN(C(=O)CCn4cncn4)CC3)s2)c1 [Example 54A-51]
< 100 nM	Cc1cc(Nc2nccc(C(F)(F)F)n2)cc(-c2cnc(C3(O)CCN(C(=O)[C@@H]4CCCC(=O)N4)CC3)s2)c1 [Example 54A-52]
< 100 nM	Cc1cc(Nc2nccc(C(F)(F)F)n2)cc(-c2cnc(C3(O)CCN(C(=O)CC4CCOCC4)CC3)s2)c1 [Example 54A-53]
< 100 nM	COC(=O)C1(C(=O)N2CCC(O)(c3ncc(-c4cc(C)cc(Nc5nccc(C(F)(F)F)n5)c4)s3)CC2)CC1 [Example 54A-54]
< 100 nM	C#Cc1ccc(C(=O)N2CCC(O)(c3ncc(-c4cc(C)cc(Nc5nccc(C(F)(F)F)n5)c4)s3)CC2)cc1 [Example 54A-55]
< 100 nM	Cc1cc(Nc2nccc(C(F)(F)F)n2)cc(-c2cnc(C3(O)CCN(C(=O)c4ccc(C#N)cc4)CC3)s2)c1 [Example 54A-56]
< 100 nM	Cc1cc(Nc2nccc(C(F)(F)F)n2)cc(-c2cnc(C3(O)CCN(C(=O)c4ccc(O)c(F)c4)CC3)s2)c1 [Example 54A-57]
< 100 nM	Cc1cc(Nc2nccc(C(F)(F)F)n2)cc(-c2cnc(C3(O)CCN(C(=O)CC(N)C(F)(F)F)CC3)s2)c1 (centres unmarked) [Example 54A-58]

Compound	IC50
Cc1cc(Nc2nccc(C(F)(F)F)n2)cc(-c2cnc(C3(O)CCN(CC(F)(F)F)CC3)s2)c1 [Example 54A-24]	< 100 nM
COC(=O)CN1CCC(O)(c2ncc(-c3cc(C)cc(Nc4nccc(C(F)(F)F)n4)c3)s2)CC1 [Example 54A-70]	< 100 nM
COC(=O)CCN1CCC(O)(c2ncc(-c3cc(C)cc(Nc4nccc(C(F)(F)F)n4)c3)s2)CC1 [Example 54A-71]	< 100 nM
COC(=O)C(C)N1CCC(O)(c2ncc(-c3cc(C)cc(Nc4nccc(C(F)(F)F)n4)c3)s2)CC1 (centres unmarked) [Example 54A-72]	< 100 nM
COC(=O)CCCN1CCC(O)(c2ncc(-c3cc(C)cc(Nc4nccc(C(F)(F)F)n4)c3)s2)CC1 [Example 54A-73]	< 100 nM

Same assay, conditions: rhSYK Activity, Table 54D

IC50	Compound
< 100 nM	Cc1cc(Nc2nccc(C(C)C)n2)cc(-c2cnc(C3(O)CCCNCC3)s2)c1 (centres unmarked) [Example 54D-1]
< 100 nM	CC(=O)N1CCCC(O)(c2ncc(-c3cc(C)cc(Nc4nccc(C(F)(F)F)n4)c3)s2)CC1 (centres unmarked) [Example 54D-2]
< 100 nM	Cc1cc(Nc2nccc(C(C)C)n2)cc(-c2cnc(C3(O)CCCN(C(=O)C(C)O)CC3)s2)c1 (centres unmarked) [Example 54D-4]
< 100 nM	CCC(=O)N1CCCC(O)(c2ncc(-c3cc(C)cc(Nc4nccc(C(F)(F)F)n4)c3)s2)CC1 (centres unmarked) [Example 54D-5]
< 100 nM	Cc1cc(Nc2nccc(C(C)C)n2)cc(-c2cnc(C3(O)CCCN(C(=O)CC(N)=O)CC3)s2)c1 (centres unmarked) [Example 54D-6]
< 100 nM	Cc1cc(Nc2nccc(C(C)C)n2)cc(-c2cnc(C3(O)CCCN(C(=O)CC(=O)O)CC3)s2)c1 (centres unmarked) [Example 54D-7]
< 100 nM	Cc1cc(Nc2nccc(C(C)C)n2)cc(-c2cnc(C3(O)CCCN(C(=O)C(O)CO)CC3)s2)c1 (centres unmarked) [Example 54D-8]
< 100 nM	Cc1cc(Nc2nccc(C(F)(F)F)n2)cc(-c2cnc(C3(O)CCCN(C(=O)CC#N)CC3)s2)c1 (centres unmarked) [Example 54D-9]
< 100 nM	Cc1cc(Nc2nccc(C(F)(F)F)n2)cc(-c2cnc(C3(O)CCCN(C(=O)C4CC4)CC3)s2)c1 (centres unmarked) [Example 54D-10]
< 100 nM	C=CCC(=O)N1CCCC(O)(c2ncc(-c3cc(C)cc(Nc4nccc(C(F)(F)F)n4)c3)s2)CC1 (centres unmarked) [Example 54D-11]
< 100 nM	COCC(=O)N1CCCC(O)(c2ncc(-c3cc(C)cc(Nc4nccc(C(F)(F)F)n4)c3)s2)CC1 (centres unmarked) [Example 54D-12]
< 100 nM	Cc1cc(Nc2nccc(C(F)(F)F)n2)cc(-c2cnc(C3(O)CCCN(C(=O)CCO)CC3)s2)c1 (centres unmarked) [Example 54D-13]
< 100 nM	Cc1cc(Nc2nccc(C(F)(F)F)n2)cc(-c2cnc(C3(O)CCCN(C(=O)C(C)O)CC3)s2)c1 (centres unmarked) [Example 54D-14]
< 100 nM	Cc1cc(Nc2nccc(C(C)C)n2)cc(-c2cnc(C3(O)CCCN(C(=O)CCC(N)=O)CC3)s2)c1 (centres unmarked) [Example 54D-15]
